Measured values taken from article PMC12032302, “A20 attenuates oxidized self-DNA-mediated inflammation in acute kidney injury” (Signal Transduction and Targeted Therapy, 2025).
“Also recorded” adds a separate entry of the source. Residues, ends and D or L forms follow the SMILES beside them.

Legend:
[1] = tested on: recombinant human NEK7 protein; assay: BLI analysis of recombinant human NEK7 and P-II; settings: Supplementary Fig. 4e, peptide immobilized on AR2G biosensors 400 μg/ml, recombinant human NEK7 39.0625 to 1250 nM, 1:1 binding model
Experimental: Bio-Layer Interferometry (BLI) analysis
The peptide (Bootech BioScience &Technology) was immobilized separately on Octet® AR2G Biosensors (Sartorius, Lot#2308017311) at a concentration of 400 μg/ml for 500 s. Association and dissociation curves were obtained through the addition of a dilution series of recombinant human NEK7 protein (SinoBiological, CAT#11534-H20B) (39.0625 to 1250 nM) for 120 s followed by dissociation for 120 s. Interference patterns for association or dissociation were measured in real-time to generate a response profile on the Octet® System Octet 96 Red instrument (Sartorius). A 1:1 binding model was used to evaluate the Kinetic parameter.

HA-NEK7 K140A = assay: biotin-P-II immunoprecipitation of HA-NEK7 K140A; type: binding, mouse; settings: co-IP with biotin-labeled P-II, HEK293T lysates, overnight 4 °C, immunoblot; Fig. 7c
Experimental: (§1) For biotin mediated immunoprecipitation, plasmids of HA-NEK7 (WT, K130A, L132R, K140A and Tri-MUT) were transfected into HEK293T cells for 2 days. Then, cells were lysed in MLB with inhibitor cocktail for 10 min at 4 °C. Cell lysates were collected and centrifuged at 12,000 rpm for 15 min at 4 °C and the supernatant was incubated with biotin conjunction peptide overnight at 4 °C. On the next day, streptavidin magnetic beads(Invitrogen, Lot#91221939) were added and incubated for 1 h. The immunocoprecipitated protein was then subjected to washing, heating, and western blot analysis.
(§2) Mouse HA-NEK7, FlAG-A20, and NLRP3 cDNA were amplified by employing standard PCR techniques from a mouse cDNA library. Subsequently, diverse cDNAs were inserted into mammalian expression vectors pcDNA3.1(+), pRK5, or pCMV6 with 3×Flag or 3×HA tags. For transient transfections, Lipofectamine 3000 was utilized according to the manufacturer’s instructions.

[2] = tested on: HA-NEK7 Tri-MUT (K130, L132 and K140); assay: biotin-P-II immunoprecipitation of HA-NEK7 Tri-MUT; type: binding, mouse; settings: co-IP with biotin-labeled P-II, HEK293T lysates, overnight 4 °C, immunoblot; Fig. 7c
Experimental: as §1, §2

NEK7 and NLRP3 complex = assay: interaction of NEK7 and NLRP3 complex; type: binding
Experimental: Cells were lysed in mild lysis buffer with a protease inhibitor cocktail (Cell Signaling Technology, Cat#5872S) on ice for 10 min to perform the coimmunoprecipitation (co-IP) assay. Samples were then centrifuged at 12,000 rpm at 4 °C for 10 min, and the supernatant was incubated with the corresponding primary antibody (anti-HA, 1:100, Cell Signaling Technology, Cat#3724S) overnight at 4 °C. On the next day, magnetic beads were added and incubated for 1 h. The immunocoprecipitated protein was washed three times by MLB and then heated with 4× Laemmli loading buffer at 100 °C for 10 min. Samples were then subjected to western blot analysis.

AKI mice = assay: overall therapeutic effect in AKI mice; type: in vivo, mouse; settings: A20-derived peptide (P-II), abstract
Experimental: Aristolochic acid I sodium salt was dissolved in PBS to 1 mg/mL and injected intraperitoneally at a dose of 10 mg/kg (body weight) every 24 h for 3 days; cisplatin was dissolved in PBS to 1.5 mg/mL for one-time intraperitoneal 25 mg/kg injection; LPS (Sigma, Cat#L2630) was dissolved in PBS to 2.5 mg/mL for one-time intraperitoneal 25 mg/kg injection; deoxyribonuclease I (DNase I, Sigma, Cat#SLBV1446) was dissolved in PBS to 1 mg/mL and injected intraperitoneally at a dose of 10 mg/kg at 4 h before cisplatin or AA I injection and every 24 h after injection. Disulfiram (MedChemExpress, CAS:97-77-8) was diluted in corn oil to 12.5 mg/mL and injected 50 mg/kg intraperitoneally every 24 h after cisplatin or AA I administration. Cu(II) (Sigma, Cat#344419) was dissolved in PBS to 30 µg/mL and administered intraperitoneally 6 h before disulfiram at a dose of 0.15 mg/kg; TNF-α (Peprotech, Cat#315-01 A) was dissolved in PBS to 10 µg/mL and injected at 100 µg/kg once through the caudal vein 24 h before cisplatin injection. Metformin (Sigma, Cat#D150959) was dissolved in PBS to 5 mg/mL and injected intraperitoneally at a dose of 50 mg/kg 24 h before cisplatin or AA I injection and every 24 h after injection. MCC950 (MedChem Express, CAS:256373-96-3) was dissolved in PBS to 5 mg/mL and injected intraperitoneally at a dose of 50 mg/kg 12 h before cisplatin or AA I injection and every 12 h after injection; berberine (APExBIO, Cat#N1368) was dissolved in PBS to 5 mg/mL and 5 mg/kg injected intraperitoneally at 36, 24 and 12 h before cisplatin; A20-derived-peptide was dissolved in ddH2O to 3 mg/mL and injected intraperitoneally at a dose of 15 mg/kg 1 h before cisplatin. To supervise the effects of various treatments on survival time and rate, the mice were observed, and survival curves were generated. To investigate the specific mechanisms, whole blood was retrieved from the orbit, serum was separated through centrifugation on the 4th day, and the mice were then sacrificed by cervical dislocation. Mice were randomly assigned in experiments, while there was no blinding during the animal experiments.

## CSCC[C@H](NC(=O)[C@H](Cc1ccc(O)cc1)NC(=O)[C@H](CCC(N)=O)NC(=O)[C@H](CS)NC(=O)[C@H](C)NC(=O)[C@H](C)NC(=O)[C@H](Cc1c[nH]cn1)NC(=O)[C@H](CCSC)NC(=O)[C@H](CC(C)C)NC(=O)[C@H](CS)NC(=O)[C@H](CC(N)=O)NC(=O)CNC(=O)[C@H](CC(=O)O)NC(=O)CNC(=O)[C@H](CC(N)=O)NC(=O)[C@@H](NC(=O)[C@H](CCCCN)NC(=O)[C@H](CC(C)C)NC(=O)[C@H](C)NC(=O)[C@@H](NC(=O)[C@H](CC(C)C)NC(=O)[C@@H](N)CCCCN)C(C)C)[C@@H](C)O)C(=O)N[C@@H](Cc1c[nH]c2ccccc12)C(=O)NCC(=O)N[C@H](C(=O)N[C@@H](CCC(N)=O)C(=O)N[C@@H](CC(=O)O)C(=O)N[C@H](C(=O)N[C@@H](CC(=O)O)C(=O)O)[C@@H](C)O)C(C)C [P-II] (H-KLVALKTNGDGNCLMHAACQYMWGVQDTD-OH; N-terminus and C-terminus assumed)
[1]
  affinity for NEK7 (in words): high affinity to NEK7 protein
HA-NEK7 K140A
  binding of NEK7 and P-II, effect of K140A mutation: significantly attenuate the binding of NEK7 and P-II; also recorded: Lys140 of NEK7 is crucial for this binding
[2]
  binding of NEK7 and P-II, effect of simultaneous mutation of three residues: significantly attenuate the binding of NEK7 and P-II
NEK7 and NLRP3 complex
  interference with NEK7-NLRP3 interaction: interfere with the interaction between NEK7 and NLRP3 through Lys140 of NEK7; also recorded: interfering the binding of NEK7 to NLRP3 complex
AKI mice
  survival and renal injury of AKI mice: improves the survival and renal injury of AKI mice
